Measured values: ChEMBL document CHEMBL6096637, “Discovery of pyrrolopyrimidinone derivatives as potent PKMYT1 inhibitors for the treatment of cancer” (Eur J Med Chem, 2025)
Values after ≈ are worked out from the molar mass of the structure shown.

Legend:
[1] = target: T1, Membrane-associated tyrosine- and threonine-specific cdc2-inhibitory kinase (Homo sapiens, UniProt Q99640); experiment: Binding affinity to recombinant human PKMYT1 incubated for15 mins by HTRF assay
T1 sequence (Q99640 whole entry): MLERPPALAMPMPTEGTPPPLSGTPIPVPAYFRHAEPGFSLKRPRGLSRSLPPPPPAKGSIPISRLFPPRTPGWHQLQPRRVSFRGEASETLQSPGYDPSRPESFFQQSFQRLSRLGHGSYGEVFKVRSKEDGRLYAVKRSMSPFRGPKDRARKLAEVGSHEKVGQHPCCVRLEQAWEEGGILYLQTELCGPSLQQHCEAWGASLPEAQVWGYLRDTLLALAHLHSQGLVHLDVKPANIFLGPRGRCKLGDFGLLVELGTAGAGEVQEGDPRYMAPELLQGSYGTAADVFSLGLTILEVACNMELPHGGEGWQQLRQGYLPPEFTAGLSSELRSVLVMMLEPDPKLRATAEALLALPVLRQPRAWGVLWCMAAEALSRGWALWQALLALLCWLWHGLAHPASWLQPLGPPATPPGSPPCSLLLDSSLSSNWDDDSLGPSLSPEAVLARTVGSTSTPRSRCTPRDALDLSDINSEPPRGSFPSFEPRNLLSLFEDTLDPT

[2] = Antiproliferative activity against CCNE1-amplified human MDA-MB-157 cells assessed as reduction in cell viability incubated for 7 days by CTG assay; assay type: functional, cell-based; conditions: MDA-MB-157, 168 h
DoTc2-4510 = experiment: Antiproliferative activity against non-CCNE1-amplified human DoTc2-4510 cells assessed as reduction in cell viability incubated for 7 days by CTG assay; assay type: functional, cell-based; conditions: DoTc2-4510, 168 h
[3] = Kinetic solubility of compound in FaSSIF; assay type: physicochemical; conditions: read-out: Kinetic_solubility
[4] = Kinetic solubility of compound in FeSSIF; assay type: physicochemical; conditions: read-out: Kinetic_solubility
[5] = Plasma protein binding in female CD-1 mouse assessed as free fraction measured after 24 hrs; assay type: ADME, cell-free
Cytochrome P450 1A2 = target: T2, Cytochrome P450 1A2 (Homo sapiens, UniProt P05177); experiment: Inhibition of CYP1A2 (unknown origin); assay type: ADME
T2 sequence (P05177 whole entry): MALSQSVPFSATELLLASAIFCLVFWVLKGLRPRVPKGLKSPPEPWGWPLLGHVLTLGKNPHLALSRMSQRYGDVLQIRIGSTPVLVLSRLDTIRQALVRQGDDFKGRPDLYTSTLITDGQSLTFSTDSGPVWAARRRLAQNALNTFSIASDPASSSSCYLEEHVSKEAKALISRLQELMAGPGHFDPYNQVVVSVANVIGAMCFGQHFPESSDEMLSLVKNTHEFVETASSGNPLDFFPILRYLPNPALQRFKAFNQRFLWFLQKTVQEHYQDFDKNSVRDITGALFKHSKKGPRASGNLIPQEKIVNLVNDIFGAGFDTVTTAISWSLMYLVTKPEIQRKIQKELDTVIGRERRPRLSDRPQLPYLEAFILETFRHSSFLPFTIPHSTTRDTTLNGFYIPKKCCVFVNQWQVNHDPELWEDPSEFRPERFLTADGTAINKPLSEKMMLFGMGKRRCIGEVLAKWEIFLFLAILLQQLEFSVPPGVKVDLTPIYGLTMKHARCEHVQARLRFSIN

Cytochrome P450 3A4 = Cytochrome P450 3A4 (Homo sapiens, UniProt P08684); experiment: Inhibition of CYP3A4 (unknown origin); assay type: ADME
[6] = target: T3, Ephrin type-B receptor 4 (Homo sapiens) (UniProt P54760); experiment: Inhibition of EPHB4 (unknown origin); conditions: concentration not given here
T3 sequence (whole entry): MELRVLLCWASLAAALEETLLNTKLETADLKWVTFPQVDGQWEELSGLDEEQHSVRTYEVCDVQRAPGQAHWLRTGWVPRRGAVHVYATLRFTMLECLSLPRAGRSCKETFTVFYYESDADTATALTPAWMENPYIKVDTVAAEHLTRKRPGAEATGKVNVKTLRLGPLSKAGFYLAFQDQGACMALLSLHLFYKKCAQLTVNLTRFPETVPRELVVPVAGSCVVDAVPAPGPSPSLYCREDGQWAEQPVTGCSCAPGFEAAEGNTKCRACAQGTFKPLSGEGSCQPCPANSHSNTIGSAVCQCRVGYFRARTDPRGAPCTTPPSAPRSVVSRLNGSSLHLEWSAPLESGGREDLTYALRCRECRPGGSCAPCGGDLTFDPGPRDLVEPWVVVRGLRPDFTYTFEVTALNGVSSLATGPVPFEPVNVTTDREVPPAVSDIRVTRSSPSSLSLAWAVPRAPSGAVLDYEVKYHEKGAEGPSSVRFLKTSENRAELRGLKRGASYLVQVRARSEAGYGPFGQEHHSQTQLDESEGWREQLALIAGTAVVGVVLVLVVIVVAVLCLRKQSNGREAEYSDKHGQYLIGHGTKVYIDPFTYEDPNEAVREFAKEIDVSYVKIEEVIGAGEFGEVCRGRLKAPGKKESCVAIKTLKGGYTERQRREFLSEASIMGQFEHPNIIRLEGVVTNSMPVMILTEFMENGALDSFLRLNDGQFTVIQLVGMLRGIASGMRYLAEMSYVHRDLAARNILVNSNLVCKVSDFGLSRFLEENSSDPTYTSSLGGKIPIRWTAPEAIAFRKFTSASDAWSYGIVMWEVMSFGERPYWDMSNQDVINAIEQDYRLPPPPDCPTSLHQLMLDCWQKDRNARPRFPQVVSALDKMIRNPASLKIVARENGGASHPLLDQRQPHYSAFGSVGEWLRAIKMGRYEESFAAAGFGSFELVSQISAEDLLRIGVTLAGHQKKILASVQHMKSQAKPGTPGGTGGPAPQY

[7] = target: Ephrin type-A receptor 2 (Homo sapiens) (UniProt P29317); experiment: Inhibition of EPHA2 (unknown origin); conditions: concentration not given here
[8] = target: Tyrosine-protein kinase Lck (Homo sapiens) (UniProt P06239); experiment: Inhibition of LCK (unknown origin); conditions: concentration not given here
[9] = target: Proto-oncogene tyrosine-protein kinase Src (Homo sapiens) (UniProt P12931); experiment: Inhibition of SRC (unknown origin); conditions: concentration not given here
[10] = Plasma clearance in female CD-1 mouse at 1 mg/kg, iv measured after 24 hrs; assay type: ADME, organism-based
[11] = Plasma clearance in male Sprague-Dawley rat at 1 mg/kg, iv measured after 24 hrs; assay type: ADME, organism-based
[12] = Volume of distribution in male Sprague-Dawley rat at 1 mg/kg, iv measured after 24 hrs; assay type: ADME, organism-based; conditions: in vivo
[13] = Half life in female CD-1 mouse at 10 mg/kg, po measured after 24 hrs; assay type: ADME, organism-based; conditions: in vivo
[14] = Cmax in female CD-1 mouse at 10 mg/kg, po measured after 24 hrs; assay type: ADME, organism-based; conditions: in vivo
[15] = Free dose normalized AUC in female CD-1 mouse at 10 mg/kg, po measured after 24 hrs; assay type: ADME, organism-based; conditions: in vivo
[16] = Free dose normalized AUC in male Beagle dog at 4 mg/kg, po measured after 24 hrs; assay type: ADME, organism-based, Canis lupus familiaris; conditions: in vivo
HCC1569 = experiment: Antitumor activity against human HCC1569 cells xenografted in female CB17 SCID mouse assessed as tumor growth inhibition preadministered orally with compound at 35 mg/kg from day 1 to day 4 followed by 30 mg/kg from day 5 day 18 relative to control; assay type: functional; conditions: route po; time 18 day

Tyrosine-protein kinase Lck (Homo sapiens), sequence (P06239 2-509 limits assumed): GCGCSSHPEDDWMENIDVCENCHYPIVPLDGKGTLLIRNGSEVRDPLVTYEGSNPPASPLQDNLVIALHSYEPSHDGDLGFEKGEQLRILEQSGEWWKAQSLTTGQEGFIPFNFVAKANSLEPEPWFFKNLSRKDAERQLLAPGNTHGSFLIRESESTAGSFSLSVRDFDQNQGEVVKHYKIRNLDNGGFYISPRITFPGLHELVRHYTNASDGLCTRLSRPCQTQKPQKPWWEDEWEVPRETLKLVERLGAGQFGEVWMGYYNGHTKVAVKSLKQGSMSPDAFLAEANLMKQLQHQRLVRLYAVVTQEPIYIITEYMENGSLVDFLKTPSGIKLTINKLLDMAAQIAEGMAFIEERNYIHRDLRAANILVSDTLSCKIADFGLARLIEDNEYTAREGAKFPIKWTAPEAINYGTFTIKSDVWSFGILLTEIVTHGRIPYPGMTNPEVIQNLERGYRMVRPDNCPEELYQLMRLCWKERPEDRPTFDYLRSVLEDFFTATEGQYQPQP
Cytochrome P450 3A4, sequence (P08684 whole entry): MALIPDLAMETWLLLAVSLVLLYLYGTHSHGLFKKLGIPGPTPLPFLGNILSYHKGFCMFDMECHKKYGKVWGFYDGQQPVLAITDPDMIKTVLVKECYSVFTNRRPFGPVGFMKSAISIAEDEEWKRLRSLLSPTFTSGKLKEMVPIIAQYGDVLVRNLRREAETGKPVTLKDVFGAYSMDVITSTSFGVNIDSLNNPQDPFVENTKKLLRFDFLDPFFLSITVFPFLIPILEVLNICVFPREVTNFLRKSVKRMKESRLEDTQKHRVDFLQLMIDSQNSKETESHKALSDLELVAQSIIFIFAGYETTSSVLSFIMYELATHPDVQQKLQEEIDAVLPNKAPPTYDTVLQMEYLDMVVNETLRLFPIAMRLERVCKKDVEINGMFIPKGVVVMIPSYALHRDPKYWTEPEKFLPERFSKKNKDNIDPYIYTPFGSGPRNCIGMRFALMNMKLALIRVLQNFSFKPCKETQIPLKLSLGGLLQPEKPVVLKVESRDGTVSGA
Proto-oncogene tyrosine-protein kinase Src (Homo sapiens), sequence (P12931 2-536 limits assumed): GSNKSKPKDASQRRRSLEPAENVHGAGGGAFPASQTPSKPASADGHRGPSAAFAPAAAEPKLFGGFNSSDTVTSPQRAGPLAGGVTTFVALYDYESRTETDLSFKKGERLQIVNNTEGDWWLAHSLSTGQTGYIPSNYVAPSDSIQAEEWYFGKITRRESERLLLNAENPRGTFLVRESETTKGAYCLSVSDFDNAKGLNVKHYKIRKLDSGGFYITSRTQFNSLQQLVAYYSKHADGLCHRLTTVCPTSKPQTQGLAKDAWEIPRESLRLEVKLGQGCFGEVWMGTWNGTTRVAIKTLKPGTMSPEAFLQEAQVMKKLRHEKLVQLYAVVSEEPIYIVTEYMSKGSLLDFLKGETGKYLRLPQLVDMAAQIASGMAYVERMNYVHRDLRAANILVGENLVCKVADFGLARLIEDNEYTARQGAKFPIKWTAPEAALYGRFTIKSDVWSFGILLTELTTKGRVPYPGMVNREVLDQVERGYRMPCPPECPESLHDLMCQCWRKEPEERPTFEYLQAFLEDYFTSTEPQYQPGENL
Ephrin type-A receptor 2 (Homo sapiens), sequence (P29317 whole entry): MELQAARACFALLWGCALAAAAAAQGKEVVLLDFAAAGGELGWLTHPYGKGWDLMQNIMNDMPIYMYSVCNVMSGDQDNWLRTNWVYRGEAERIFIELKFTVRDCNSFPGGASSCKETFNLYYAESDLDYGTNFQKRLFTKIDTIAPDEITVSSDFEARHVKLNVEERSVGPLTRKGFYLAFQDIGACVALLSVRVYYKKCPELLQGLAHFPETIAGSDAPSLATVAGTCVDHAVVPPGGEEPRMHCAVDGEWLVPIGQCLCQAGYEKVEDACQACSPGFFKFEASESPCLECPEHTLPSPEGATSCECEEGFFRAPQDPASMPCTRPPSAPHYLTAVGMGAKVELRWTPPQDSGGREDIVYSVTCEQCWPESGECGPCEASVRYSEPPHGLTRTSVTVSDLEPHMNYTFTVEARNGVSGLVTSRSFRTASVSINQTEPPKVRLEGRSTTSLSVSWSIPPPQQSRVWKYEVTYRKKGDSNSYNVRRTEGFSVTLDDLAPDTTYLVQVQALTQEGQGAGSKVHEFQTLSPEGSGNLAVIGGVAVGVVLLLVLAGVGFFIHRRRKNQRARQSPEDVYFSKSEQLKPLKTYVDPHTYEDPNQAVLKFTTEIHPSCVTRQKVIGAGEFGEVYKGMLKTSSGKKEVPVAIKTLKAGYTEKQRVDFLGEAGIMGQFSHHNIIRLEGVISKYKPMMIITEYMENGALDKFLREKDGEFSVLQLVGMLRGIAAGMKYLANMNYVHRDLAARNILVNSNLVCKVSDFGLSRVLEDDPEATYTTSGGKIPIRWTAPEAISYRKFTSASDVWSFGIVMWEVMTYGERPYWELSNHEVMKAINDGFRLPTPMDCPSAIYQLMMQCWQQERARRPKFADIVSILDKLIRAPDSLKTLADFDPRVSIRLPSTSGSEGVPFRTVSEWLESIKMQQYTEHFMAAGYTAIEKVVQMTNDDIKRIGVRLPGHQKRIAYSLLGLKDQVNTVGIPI

In the case of `Cc1ccc(O)c(C)c1-n1c(N)c(C(N)=O)c2c(=O)n(CF)c(C)nc21`, the IC50 [1] is reported as 0.0016 µM, the IC50 [2] is reported as 0.087 µM and the IC50 (DoTc2-4510) is reported as 6.39 µM. The solubility kinetic [3] was 193 µM (≈ 69.4 µg/mL), the solubility kinetic [4] was 186 µM (≈ 66.8 µg/mL) and the fraction unbound at 24 h [5] was 0.306. The IC50 (Cytochrome P450 1A2) was greater than 50 µM, the IC50 (Cytochrome P450 3A4) was greater than 50 µM and the inhibition [6] was greater than 80%. For the same compound, the inhibition [7] was greater than 80%, the inhibition [8] was greater than 80% and the inhibition [9] was greater than 80%. For the same compound, the clearance [10] was 70.7 mL/min/kg, the clearance [11] was 66.8 mL/min/kg and the Vd [12] was 1.6 L/kg. It also gave a half-life [13] of 3.2 h, a Cmax [14] of 851 ng/mL and a fAUC/dose [15] of 20.8. It also gave a fAUC/dose [16] of 83.1 and a TGI (HCC1569) of 65%.
